# According to PMC10786036 (2023):
# Experiments:
# [1] = test system: TRF2 (RNA, G4) CGGGAGGGCGGGGAGGGC; assay: fluorescence lifetime; conditions: 100 mM KCl; 10 mM Tris-HCl pH 7.4; 2 µM TOR-G4; lifetime rises with G4 RNA in totRNA
# [2] = test system: c-MYC (DNA, G4) TGAGGGTGGGTAGGGTGGGTAA; assay: fluorescence lifetime; conditions: 100 mM LiCl; 10 mM Tris-HCl pH 7.4; lifetime 1.3 ns lower than in K+
smiles,measurement,setting,value
COc1ccc2c(c1)N(C)C(=Cc1cc(/C=C/c3ccc(N(C)C)cc3)[n+](C)c3ccccc13)S2,binding,[1],yes
same,binding,[2],yes
